System: NBD1
Test: Aggregation analysis of NBD1 thermal stability by differential static light scattering (DSLS)
Assay type: binding, Human
Conditions: 100 μM compound; ΔTagg versus DMSO control
Description: Purified recombinant NBD1 was produced using previously described methods (A. Schmidt, J. L. Mendoza, P. J. Thomas (2011) Biochemical and Biophysical Approaches to Probe CFTR Structure (365-376) M. D. Amaral, K. Kunzelmann (eds.), Cystic Fibrosis, Methods in Molecular Biology 741, Springer Science+Business Media). The effect of test compounds on thermal stability of NBD1 was evaluated by differential static light scattering (DSLS) using the Harbinger Stargazer-384 instrument (Epiphyte Three, Toronto, Canada). Test compounds were dissolved and diluted to desired concentrations in 100% DMSO. The compounds or DMSO controls (100 nL) were stamped into wells of a […] low volume optical plate (Corning Inc., Corning, NY) using the Echo 555 acoustic liquid handler (Labcyte Inc., San Jose, CA).
NBD1 protein was diluted to 0.2 mg/ml in S200 buffer (50 mM Tris-HCl, 150 mM NaCl, 5 mM MgCl2, 2 mM ATP, 2 mM DTT, pH7.6) containing 1% glycerol. 10 uL of protein solution was aliquoted into the 384-well plate harboring the test compounds and 10 uL mineral oil was overlayed onto the protein solution, using the epMotion robotic liquid handler (Eppendorf North America, Hauppauge, NY). After placing into the Stargazer instrument, the plate was heated at 1° C. per minute to 70° C. Images were captured from 25° C. to 70° C. every 0.5° C. At the end of the experiment run, instrument software integrated image files and analyzed data automatically. A […] regression curve was generated for each well, representing the increase in light scattering over time. A temperature of aggregation (Tagg) was calculated based on the inflection point of the curve. To better compare data across experiments the average Tagg for DMSO control wells was calculated and subtracted from values for wells containing compounds to obtain a “ΔTagg” value. These ΔTagg values reflect stabilizing efficacy of the compounds.

Structure (SMILES) | DSLS NBD1/3D Human Stability delta-T (° C.) @ 100 (μM)
O[C@H](Cc1cncs1)c1c[nH]c(-c2cccc(Oc3ccc4[nH]ccc4c3)c2)n1 (single isomer, unassigned) [Compound 23] | B (B: 4-8° C.)
O[C@@H](Cc1cncs1)c1c[nH]c(-c2cccc(Oc3ccc4[nH]ccc4c3)c2)n1 (single isomer, unassigned) [Compound 24] | C (C: ≤4° C.)
C[C@H](c1nc(-c2cc(Oc3c(F)cc4[nH]ccc4c3F)ccc2F)n(C)n1)c1ccc(CCC(=O)O)s1 (single isomer, unassigned) [Compound 45] | A (A: T ≥8° C.)
Cc1c(Oc2ccc(F)c(-c3nc(Cc4csc(CCC(=O)O)n4)c[nH]3)c2)c(F)cc2[nH]ccc12 [Compound 1, 3-(4-((2-(2-fluoro-5-((6-fluoro-4-methyl-1H-indol-5-yl)oxy)phenyl)-1H-imidazol-4-yl)methyl)thiazol-2-yl)propanoic acid] | B (B: 4-8° C.)
O=C(O)CCc1ncc(Cc2cnc(-c3cc(Oc4c(F)cc5[nH]ccc5c4F)ccc3F)[nH]2)s1 [Compound 2, 3-(5-((2-(5-((4,6-difluoro-1H-indol-5-yl)oxy)-2-fluorophenyl)-1H-imidazol-5-yl)methyl)thiazol-2-yl)propanoic acid] | B (B: 4-8° C.)
NC(=O)CCc1ncc(Cc2cnc(-c3cc(Oc4c(F)cc5[nH]ccc5c4F)ccc3F)[nH]2)s1 [Compound 3, 3-(5-((2-(5-((4,6-difluoro-1H-indol-5-yl)oxy)-2-fluorophenyl)-1H-imidazol-5-yl)methyl)thiazol-2-yl)propanamide] | C (C: ≤4° C.)
O=C(O)CCn1ccc(Cc2cnc(-c3cc(Oc4c(F)cc5[nH]ccc5c4F)ccc3F)[nH]2)n1 [Compound 5, 3-(3-((2-(5-((4,6-difluoro-1H-indol-5-yl)oxy)-2-fluorophenyl)-1H-imidazol-5-yl)methyl)-1H-pyrazol-1-yl)propanoic acid] | B (B: 4-8° C.)
Cc1c(Oc2ccc(F)c(-c3ccn(Cc4cnc(CCC(N)=O)s4)n3)c2)c(F)cc2[nH]ccc12 [Compound 6] | C (C: ≤4° C.)
Cc1c[nH]c2cc(F)c(Oc3ccc(F)c(-c4ccn(Cc5cnc(CCC(N)=O)s5)n4)c3)cc12 [Compound 7, 3-(5-((3-(2-fluoro-5-((6-fluoro-3-methyl-1H-indol-5-yl)oxy)phenyl)-1H-pyrazol-1-yl)methyl)thiazol-2-yl)propanamide] | C (C: ≤4° C.)
Cc1ccc(Cc2nnc(-c3cccc(Oc4cc5cc[nH]c5cn4)c3)[nH]2)s1 [Compound 8, 5-(3-(5-((5-methylthiophen-2-yl)methyl)-4H-1,2,4-triazol-3-yl)phenoxy)-1H-pyrrolo[2,3-c]pyridine] | C (C: ≤4° C.)
Cc1cc(Cc2nnc(-c3cccc(Oc4cc5cc[nH]c5cn4)c3)[nH]2)cs1 [Compound 9, 5-(3-(5-((5-methylthiophen-3-yl)methyl)-4H-1,2,4-triazol-3-yl)phenoxy)-1H-pyrrolo[2,3-c]pyridine] | C (C: ≤4° C.)
c1cc(Oc2ccc3[nH]ccc3c2)cc(-c2nnc(Cc3ccsc3)[nH]2)c1 [Compound 11, 5-(3-(5-(thiophen-3-ylmethyl)-4H-1,2,4-triazol-3-yl)phenoxy)-1H-indole] | C (C: ≤4° C.)
c1cc(Oc2ccc3[nH]ccc3c2)cc(-c2nnc(Cc3nccs3)[nH]2)c1 [Compound 12, 2-((5-(3-((1H-indol-5-yl)oxy)phenyl)-4H-1,2,4-triazol-3-yl)methyl)thiazole] | C (C: ≤4° C.)
c1cc(Oc2ccc3[nH]ccc3c2)cc(-c2nnc(Cc3cscn3)[nH]2)c1 [Compound 13, 4-((5-(3-((1H-indol-5-yl)oxy)phenyl)-4H-1,2,4-triazol-3-yl)methyl)thiazole] | C (C: ≤4° C.)
c1cc(Oc2ccc3[nH]ccc3c2)cc(-c2nnc(Cc3cncs3)[nH]2)c1 [Compound 14, 5-((5-(3-((1H-indol-5-yl)oxy)phenyl)-4H-1,2,4-triazol-3-yl)methyl)thiazole] | C (C: ≤4° C.)
Cc1csc(Cc2nnc(-c3cccc(Oc4ccc5[nH]ccc5c4)c3)[nH]2)n1 [Compound 15, 2-((5-(3-((1H-indol-5-yl)oxy)phenyl)-4H-1,2,4-triazol-3-yl)methyl)-4-methylthiazole] | C (C: ≤4° C.)

Structure (SMILES) | DSLS NBD1/3D Human Stability delta-T (° C.) @ 100 (μM)
Cc1cnc(Cc2nnc(-c3cccc(Oc4ccc5[nH]ccc5c4)c3)[nH]2)s1 [Compound 16, 2-((5-(3-((1H-indol-5-yl)oxy)phenyl)-4H-1,2,4-triazol-3-yl)methyl)-5-methylthiazole] | C (C: ≤4° C.)
Cc1nc(Cc2nnc(-c3cccc(Oc4ccc5[nH]ccc5c4)c3)[nH]2)cs1 [Compound 17, 4-((5-(3-((1H-indol-5-yl)oxy)phenyl)-4H-1,2,4-triazol-3-yl)methyl)-2-methylthiazole] | C (C: ≤4° C.)
Cc1ncc(Cc2nnc(-c3cccc(Oc4ccc5[nH]ccc5c4)c3)[nH]2)s1 [Compound 18, 5-((5-(3-((1H-indol-5-yl)oxy)phenyl)-4H-1,2,4-triazol-3-yl)methyl)-2-methylthiazole] | B (B: 4-8° C.)
Clc1ccc(Cc2n[nH]c(-c3cccc(Oc4cc5cc[nH]c5cn4)c3)n2)s1 [Compound 19, 5-(3-(3-((5-chlorothiophen-2-yl)methyl)-1H-1,2,4-triazol-5-yl)phenoxy)-1H-pyrrolo[2,3-c]pyridine] | C (C: ≤4° C.)
Cc1ccc(C(O)c2c[nH]c(-c3cccc(Oc4ccc5[nH]ccc5c4)c3)n2)s1 (stereo not shown) [Compound 20, (2-(3-((1H-indol-5-yl)oxy)phenyl)-1H-imidazol-4-yl)(5-methylthiophen-2-yl)methanol] | B (B: 4-8° C.)
OC(c1c[nH]c(-c2cccc(Oc3ccc4[nH]ccc4c3)c2)n1)c1nccs1 (stereo not shown) [Compound 21, (2-(3-((1H-indol-5-yl)oxy)phenyl)-1H-imidazol-4-yl)(thiazol-2-yl)methanol] | B (B: 4-8° C.)
Cc1cnc(C(O)c2c[nH]c(-c3cccc(Oc4ccc5[nH]ccc5c4)c3)n2)s1 (stereo not shown) [Compound 22, (2-(3-((1H-indol-5-yl)oxy)phenyl)-1H-imidazol-4-yl)(5-methylthiazol-2-yl)methanol] | B (B: 4-8° C.)
Cn1cc(Cc2nnc(-c3cccc(Oc4ccc5[nH]ccc5c4)c3)[nH]2)cn1 [Compound 25, 5-(3-(5-((1-methyl-1H-pyrazol-4-yl)methyl)-4H-1,2,4-triazol-3-yl)phenoxy)-1H-indole] | C (C: ≤4° C.)
Cn1nccc1C(O)c1cnc(-c2cccc(Oc3ccc4[nH]ccc4c3)c2)[nH]1 (stereo not shown) [Compound 26, (2-(3-((1H-indol-5-yl)oxy)phenyl)-1H-imidazol-5-yl)(1-methyl-1H-pyrazol-5-yl)methanol] | C (C: ≤4° C.)
Cn1cc(C(O)c2cnc(-c3cccc(Oc4ccc5[nH]ccc5c4)c3)[nH]2)cn1 (stereo not shown) [Compound 27, (2-(3-((1H-indol-5-yl)oxy)phenyl)-1H-imidazol-5-yl)(1-methyl-1H-pyrazol-4-yl)methanol] | B (B: 4-8° C.)
Cn1cc(Cc2cnc(-c3cccc(Oc4ccc5[nH]ccc5c4)c3)[nH]2)cn1 [Compound 28, 5-(3-(5-((1-methyl-1H-pyrazol-4-yl)methyl)-1H-imidazol-2-yl)phenoxy)-1H-indole] | C (C: ≤4° C.)
Cn1nccc1C(O)c1cnc(-c2cccc(Oc3ccc4[nH]cnc4c3)c2)[nH]1 (stereo not shown) [Compound 29, (2-(3-((1H-benzo[d]imidazol-5-yl)oxy)phenyl)-1H-imidazol-5-yl)(1-methyl-1H-pyrazol-5-yl)methanol] | C (C: ≤4° C.)
Cn1cc(C(O)c2nnc(-c3cccc(Oc4ccc5[nH]ccc5c4)c3)[nH]2)cn1 (stereo not shown) [Compound 30, (5-(3-((1H-indol-5-yl)oxy)phenyl)-4H-1,2,4-triazol-3-yl)(1-methyl-1H-pyrazol-4-yl)methanol] | B (B: 4-8° C.)
Cn1cc(Cc2nnc(-c3cccc(Oc4ccc5[nH]ccc5n4)c3)[nH]2)cn1 [Compound 31, 5-(3-(5-((1-methyl-1H-pyrazol-4-yl)methyl)-4H-1,2,4-triazol-3-yl)phenoxy)-1H-pyrrolo[3,2-b]pyridine] | C (C: ≤4° C.)
Cn1cc(C(O)c2cnc(-c3cccc(Oc4ccc5[nH]ccc5n4)c3)[nH]2)cn1 (stereo not shown) [Compound 32, (2-(3-((1H-pyrrolo[3,2-b]pyridin-5-yl)oxy)phenyl)-1H-imidazol-5-yl)(1-methyl-1H-pyrazol-4-yl)methanol] | C (C: ≤4° C.)
